pEC50: −log10 of the molar value. Read-outs that look alike come from different tables or passages of the source. Residues, ends and D or L forms follow the SMILES beside them.
Assays:
[1] = target: NMDA receptor (Rattus norvegicus, UniProt P35439); assay: [^3H] MK-801 binding assay; conditions: for Emax: read-out: Efficacy (% Increase in [^3H] MK-801 Binding)
[2] = Kinetic aqueous solubility (pION method); assay type: physicochemical; conditions: pH 7.4, conc. tested 200 μM with 1% DMSO, 16 h incubation
[3] = Metabolic stability in liver microsomes, human; assay type: in vitro ADME; conditions: Human (M) microsomes, 1 μM
Experimental: (§1) Metabolic stability was assessed in liver microsomes as well as in hepatocytes with few compounds.
(§2) Procedure for microsomal stability: • Species: Rat and human • Test concentration: 1 μM (n=2) • Protein concentration: 0.125 mg/mL • Time points: 0, 5, 15, 30 and 60 minutes • Controls: Minus NADPH and buffer • Analysis: Parent compound monitoring LC-MS/MS (Peak area ratios)

[4] = Metabolic stability in liver microsomes, rat; assay type: in vitro ADME; conditions: Rat (M) microsomes, 1 μM
Experimental: as §1, §2

[5] = test system: MDCK (Madin-Darby Canine Kidney Cells); assay: in vitro; conditions: concentration 5 μM; for Papp (10^−6 cm/sec): HBSS pH 7.4
Experimental: Procedure. Permeability of test compounds was assessed using MDCK (Madin-Darby Canine Kidney Cells) using the below parameters. • Test concentration: 5 μM (n=3) • Buffer: HBSS pH 7.4 • Time points: 0, 15, 30, 60 and 90 min • Analysis: Parent compound monitoring using LC-MS/MS

[6] = test system: floating behavior; assay: Porsolt test procedure 2; assay type: in vivo, Sprague Dawley rats; conditions: single dose (0.3 mg/kg IV), 24 hrs post-dosing, FIG. 11C
[7] = test system: Schaffer collateral-evoked NMDA EPSCs in CA1 pyramidal neurons; assay: Long-term potentiation (LTP) assay procedure 2; assay type: cell-based, Sprague-Dawley rats; conditions: 1 μM, FIG. 8, P<0.05
Experimental: Assays were conducted as described in Zhang et al. (2008). Sprague-Dawley rats (12-18 days old; Taconic Farms) were deeply anesthetized with isoflurane and decapitated. Brains was removed rapidly, submerged in ice-cold artificial cerebrospinal fluid (ACSF, 2-4° C.), which contained (in mM): 124 NaCl, 4 KCl, 2 MgSO4, 2 CaC12, 1.25 NaH2PO4, 26 NaHCO3, 10 glucose; at pH 7.4, gassed continuously with 95% O2/5% CO2). Brains were hemisected, the frontal lobes cut off, and individual hemispheres glued using cyanoacrylate adhesive onto a stage immersed in ice-cold ACSF gassed continuously with 95% O2/5% CO2 during slicing. […] Bath application of test compounds (1 μM) was applied 30 min prior to application of Schaffer collateral stimulus trains to elicit LTP. LTP was induced by stimulation of Schaffer collateral axons with four high frequency theta burst stimulus trains of 10×100 Hz/5 pulse bursts each, applied at an inter-burst interval of 200 ms. Each train was 2 s in duration, and trains were applied 15 s apart.

[8] = test system: floating behavior; assay: Porsolt test procedure 2; assay type: in vivo, Sprague Dawley rats; conditions: 1 hr post-dosing
Experimental: The antidepressant-like effects of test compounds were examined with the rat Porsolt test as described in Page et al. (1999) and Burgdorf et al. (2009). Male Sprague Dawley rats (2-3 month old) were used in this study. Animals were dosed with test compounds (0.3 mg/kg IV) or sterile saline vehicle (1 ml/kg IV tail vein) 1 hr before a single test session. […] Water was changed after every other animal. […] CM-6A, CM-7A, CM-8A, and CM-9A were tested in the Porsolt test. CM-5A was not tested in the Porsolt test.
Animals received a single 15 min Porsolt habituation session on the day before the first 5 min Porsolt test. N=6 per group. *P<0.05 Fisher's PLSD post hoc test vs. vehicle.

[9] = Metabolic stability in hepatocytes, rat; assay type: in vitro ADME; conditions: Rat (H) hepatocytes, 10 μM
Experimental: as §1
(§3) Procedure for hepatocyte stability: • Stock preparation: DMSO • Buffer: Krebs Henseleit Buffer • Total Incubation volume: […] • Cell density: 1 million cells/mL • Test concentration: 10 μM with 0.5% DMSO (n=2) • Time points: 0 and 60 min • Analysis: LC-MS/MS

[10] = Metabolic stability in hepatocytes, human; assay type: in vitro ADME; conditions: Human (H) hepatocytes, 10 μM
Experimental: as §1, §3

[11] = single dose 0.3 mg/kg IV, FIG. 11A
[12] = single dose (0.3 mg/kg IV), FIG. 11B

Cc1cccc(CC2(C(=O)NC(C(N)=O)C(C)O)CCCN2C(=O)C2CCCN2C(=O)C(N)C(C)O)c1 (stereo not drawn) [CM-8]
pEC50 [1]: 11.22 | Emax [1]: 16%

Cc1ccc(C[C@@]2(C(=O)N[C@H](C(N)=O)[C@@H](C)O)CCCN2C(=O)[C@@H]2CCCN2C(=O)[C@@H](N)[C@@H](C)O)cc1 [CM-5A, (R)-N-((2S,3R)-1-amino-3-hydroxy-1-oxobutan-2-yl)-1-((S)-1-((2S,3R)-2-amino-3-hydroxybutanoyl)pyrrolidine-2-carbonyl)-2-(4-methylbenzyl) pyrrolidine-2-carboxamide]
Mean Solubility (N = 3) at pH [2]: >200 | % Remaining at 60 minutes [3]: 86% | Half-life [3]: >1 h | Stability Class [3]: Moderate (% Remaining 70-90%) | % Remaining at 60 minutes [4]: 95% | Half-life [4]: >1 h | Stability Class [4]: Stable (% Remaining >90%) | Permeability classification [5]: Low (≦3 × 10^−6 cm/sec) | Recovery [5]: 100

C[C@@H](O)[C@H](NC(=O)[C@@H]1CCCN1C(=O)[C@@H]1CCCN1C(=O)[C@@H](N)CO)C(N)=O [CM-1, (S)-N-((2S,3R)-1-amino-3-hydroxy-1-oxobutan-2-yl)-1-((S)-1-((S)-2-amino-3-hydroxypropanoyl)pyrrolidine-2-carbonyl)pyrrolidine-2-carboxamide] (H-SPPT-NH2)
pEC50 [1]: 11.30

NC(=O)[C@H](CO)NC(=O)[C@@H]1CCCN1C(=O)[C@@H]1CCCN1C(=O)[C@@H](N)CO [CM-3, (S)-N-((S)-1-amino-3-hydroxy-1-oxopropan-2-yl)-1-((S)-1-((S)-2-amino-3-hydroxy-propanoyl)-pyrrolidine-2-carbonyl)-pyrrolidine-2-carboxamide] (H-SPPS-NH2)
pEC50 [1]: 10.80

CC(O)C(N)C(=O)N1CCCC1C(=O)N1CCCC1(Cc1cccc(F)c1)C(=O)NC(C(N)=O)C(C)O (stereo not drawn) [CM-9]
pEC50 [1]: 11.15 | Emax [1]: 15%

C[C@@H](O)[C@H](NC(=O)C1(Cc2ccccc2)CCCN1C(=O)[C@@H]1CCCN1C(=O)[C@@H](N)CO)C(N)=O (stereo partly drawn) [CM-10, N-((2S,3R)-1-amino-3-hydroxy-1-oxobutan-2-yl)-1-((S)-1-((S)-2-amino-3-hydroxypropanoyl)pyrrolidine-2-carbonyl)-2-benzylpyrrolidine-2-carboxamide]
Emax [1]: 16%

C[C@@H](O)[C@H](N)C(=O)N1CCC[C@H]1C(=O)N1CCC[C@@]1(Cc1cccc(F)c1)C(=O)N[C@H](C(N)=O)[C@@H](C)O [CM-9A, (R)-N-((2S,3R)-1-amino-3-hydroxy-1-oxobutan-2-yl)-1-((S)-1-((2S,3R)-2-amino-3-hydroxybutanoyl)pyrrolidine-2-carbonyl)-2-(3-fluorobenzyl) pyrrolidine-2-carboxamide]
Mean Solubility (N = 3) at pH [2]: 148 ± 42 | floating time in the Porsolt test [6]: produced an antidepressant-like effect | % Remaining at 60 minutes [3]: 69% | Half-life [3]: >1 h | Stability Class [3]: Unstable (% Remaining <70%) | long-term potentiation after high frequency stimulation (fEPSP slope) [7]: increased long-term potentiation | % Remaining at 60 minutes [4]: 100% | Half-life [4]: >1 h | Stability Class [4]: Stable (% Remaining >90%) | floating time in the Porsolt test [8, 11]: produced an antidepressant-like effect | floating time in the Porsolt test [8, 12]: produced an antidepressant-like effect | Permeability classification [5]: Low (≦3 × 10^−6 cm/sec) | Recovery [5]: 100

CC(O)C(N)C(=O)N1CCCC1C(=O)N1CCCC1(Cc1cc(Br)cc(Br)c1)C(=O)NC(C(N)=O)C(C)O (stereo not drawn) [CM-12]
pEC50 [1]: 8.66 | Emax [1]: 13%

Cc1cccc(C[C@@]2(C(=O)N[C@H](C(N)=O)[C@@H](C)O)CCCN2C(=O)[C@@H]2CCCN2C(=O)[C@@H](N)[C@@H](C)O)c1 [CM-8A, (R)-N-((2S,3R)-1-amino-3-hydroxy-1-oxobutan-2-yl)-1-((S)-1-((2S,3R)-2-amino-3-hydroxybutanoyl)pyrrolidine-2-carbonyl)-2-(3-methylbenzyl) pyrrolidine-2-carboxamide]
Mean Solubility (N = 3) at pH [2]: >200 | floating time in the Porsolt test [6]: produced an antidepressant-like effect | % Remaining at 60 minutes [3]: 75% | Half-life [3]: >1 h | Stability Class [3]: Moderate (% Remaining 70-90%) | long-term potentiation after high frequency stimulation (fEPSP slope) [7]: increased long-term potentiation | % Remaining at 60 minutes [4]: 91% | Half-life [4]: >1 h | Stability Class [4]: Stable (% Remaining >90%) | floating time in the Porsolt test [8, 11]: produced an antidepressant-like effect | floating time in the Porsolt test [8, 12]: produced an antidepressant-like effect | Permeability classification [5]: Low (≦3 × 10^−6 cm/sec) | Recovery [5]: 83 | Papp (10^−6 cm/sec) [5]: 0.14 ± 0.01 10^−6 cm/sec

CC(O)C(N)C(=O)N1CCCC1C(=O)N1CCCC1(Cc1ccc(C(F)(F)F)cc1)C(=O)NC(C(N)=O)C(C)O (stereo not drawn) [CM-7]
pEC50 [1]: 7.97 | Emax [1]: 13%

C[C@@H](O)[C@H](N)C(=O)N1CCC[C@H]1C(=O)N1CCC[C@@]1(Cc1ccc(C(F)(F)F)cc1)C(=O)N[C@H](C(N)=O)[C@@H](C)O [CM-7A, (R)-N-((2S,3R)-1-amino-3-hydroxy-1-oxobutan-2-yl)-1-((S)-1-((2S,3R)-2-amino-3-hydroxybutanoyl)pyrrolidine-2-carbonyl)-2-(4-(trifluoromethyl)benzyl) pyrrolidine-2-carboxamide]
floating time in the Porsolt test [6]: produced an antidepressant-like effect | long-term potentiation after high frequency stimulation (fEPSP slope) [7]: increased long-term potentiation | floating time in the Porsolt test [8, 11]: produced an antidepressant-like effect | floating time in the Porsolt test [8, 12]: produced an antidepressant-like effect | Permeability classification [5]: Low (≦3 × 10^−6 cm/sec) | Recovery [5]: 68 | Papp (10^−6 cm/sec) [5]: 0.11 ± 0.0 10^−6 cm/sec | % Remaining at 60 minutes [9]: 76% | Half-life [9]: >1 h | Stability Class [9]: Moderate (% Remaining 70-90%) | % Remaining at 60 minutes [10]: 92% | Half-life [10]: >1 h | Stability Class [10]: Stable (% Remaining >90%)

COc1cccc(CC2(C(=O)NC(C(N)=O)C(C)O)CCCN2C(=O)C2CCCN2C(=O)C(N)C(C)O)c1 (stereo not drawn) [CM-13]
Emax [1]: 10%

C[C@@H](O)[C@H](N)C(=O)N1CCC[C@H]1C(=O)N1CCC[C@H]1C(=O)N[C@@H](CO)C(N)=O [CM-2, (S)-N-((S)-1-amino-3-hydroxy-1-oxopropan-2-yl)-1-((S)-1-((2S,3R)-2-amino-3-hydroxybutanoyl)pyrrolidine-2-carbonyl) pyrrolidine-2-carboxamide] (H-TPPS-NH2)
Efficacy (% Increase in [^3H] MK-801 Binding) ([1]; best-fit top value, 50 μM glutamate): 24% | pEC50 ([1]; rat forebrain membranes, 50 μM glutamate, read-out: Potency (EC50)): 11.22

CC(O)C(N)C(=O)N1CCCC1C(=O)N1CCCC1(Cc1ccc(F)cc1)C(=O)NC(C(N)=O)C(C)O (stereo not drawn) [CM-6]
Emax [1]: 12%

CC/C(=C(/CC)c1ccc(O)cc1)c1ccc(O)cc1 [DES, reference compound]
Mean Solubility (N = 3) at pH [2]: 2.6 ± 2.1

COc1ccc(CC2(C(=O)N[C@H](C(N)=O)[C@@H](C)O)CCCN2C(=O)[C@@H]2CCCN2C(=O)[C@@H](N)[C@@H](C)O)cc1 (stereo partly drawn) [CM-11]
pEC50 [1]: 10.89 | Emax [1]: 9%

COc1cc(CC2(C(=O)NC(C(N)=O)C(C)O)CCCN2C(=O)C2CCCN2C(=O)C(N)C(C)O)cc(OC)c1OC (stereo not drawn) [CM-14]
pEC50 [1]: 9.35 | Emax [1]: 8%

Source: US20150051262A1, “NMDA RECEPTOR MODULATORS AND USES THEREOF” (Northwestern University, priority 2011, published 2015)
